Results from paper PMC12526212, “Novel Isolongifolenone-Based Caprolactam Derivatives as Potential Anticancer Agents via the p53/mTOR/Autophagy Pathway” (Molecules, 2025).

Legend:
[1] = tested on: HepG2; experiment: CCK-8 antiproliferative assay, HepG2; format: cell-based; conditions: Homo sapiens, HepG2; CCK-8, 48 h, mean ± SD of three experiments; read-out: IC50 HepG2
Protocol: (§1) After synthesis and characterization, the isolongifolenone bicyclocaprolactam derivatives were evaluated for their in vitro antiproliferative activity against three cancer cell lines (MCF-7, HepG2, A549) using a CCK-8 assay. […] In general, the antiproliferative activities of most of these compounds were similar, irrespective of whether electron-withdrawing or electron-donating substituents were introduced in the phenoxy ring.
(§2) Three cancer cell lines (human breast adenocarcinoma cells MCF-7, human lung adenocarcinoma epithelial cells A549, and human hepatocellular carcinoma cells HepG2) were obtained from the Cell Bank of the Chinese Academy of Sciences (Shanghai, China). LO2 human normal liver cells were also purchased from STEM RECELL (Beijing, China, STM-CL-5770). The anti-proliferation activity of compounds was tested on three cancer cell lines. The cytotoxicity of compounds as tested on normal cell line (human normal liver cells LO2). Cells were seeded at a density of 5000 cells per well in 96-well plates. Natural product piperlongumine was used as the positive control. All experiments were performed in triplicate. Three cancer cell lines were cultured in High DMEM medium or RIPM 1640 containing 10% FBS (Sijiqing, Hangzhou, China) and 1% antibiotics at 37 °C in a 5% CO2 incubator. The experimental cells were seeded in a 96-well plate at 5000 cells per well and incubated for 24 h. The old medium was replaced with experimental medium, and the cells were cultured for 48 h. Afterward, 10 µL of CCK-8 solution was added to each well, and the cells were incubated for 3 h. The absorbance at 450 nm was measured using a microplate reader.

[2] = tested on: A549; experiment: CCK-8 antiproliferative assay, A549; format: cell-based; conditions: Homo sapiens, A549; CCK-8, 48 h, mean ± SD of three experiments; read-out: IC50 A549
Protocol: as §1, §2

[3] = tested on: MCF-7 cells; experiment: Annexin V/PI apoptosis assay by flow cytometry; format: cell-based, human
Protocol: The ability of drugs to induce cancer cell apoptosis is a key indicator of their chemotherapeutic potential. […] To examine the apoptotic effects of E10, an Annexin V-FITC dual-staining assay (with flow cytometric analysis) was performed. As shown in Figure 3A (also Figure 3C), treatment with increasing concentrations of E10 induced a marked elevation in apoptotic cell populations.
Autophagy has bidirectional regulation effects on cell survival. To confirm the role of autophagy in E10-induced cell death, 3-MA was used as an autophagy blocker.
MCF-7 cells were seeded at a density of 6 × 10^5 cells per well in 12-well plates and incubated in a 37 °C, 5% CO2 incubator for 24 h. After treatment with different concentrations of compound E10, the cells were washed with PBS two times, collected by trypsin enzymic digestion and centrifugation, and the collected cells were subsequently stained with 5 µL Annexin V-APC (YSRIBIO-C1084) and 5 µL PI for 10 min in the dark conditions. The cell apoptosis was measured with the flow cytometry (BD), and the data were analyzed by flowjo 10.6 software.

[4] = tested on: MCF-7 cells; experiment: Cell cycle assay (PI, flow cytometry); format: cell-based, human; conditions: 0.5, 1.0, 2.0 µM, 24 h
Protocol: As a cell progresses into different cell cycle phases, its DNA content varies because of DNA synthesis (which is required to prepare additional chromosome copies prior to cell division). Consequently, a flow cytometric analysis of DNA content can provide information on the number of cells in different cell cycle phases.
For cell cycle analysis, MCF-7 cells were seeded at a density of 2 × 10^5 cells per well in 6-well plates. MCF-7 cells were treated with different concentrations of compound E10 for 24 h. After that, the cells were washed with PBS twice, collected by trypsin enzymic digestion and centrifugation, and the collected cells were subsequently fixed with 70% ice-cold ethanol overnight at 4 °C. The cells were stained with PI (50 μg/mL) the next day. The cell cycle distributions were measured through flow cytometry (BD), and the data were analyzed by Modfit 5.1 software.

[5] = tested on: MCF-7 cells; experiment: Comet assay (DNA damage); format: cell-based, human; conditions: 24 h
Protocol: DNA fragmentation is a hallmark of apoptosis, mitotic catastrophe, or both. DNA damage in MCF-7 cells was investigated by single-cell gel electrophoresis in an agarose gel matrix (the ‘comet assay’). In this assay, the length of the ‘comet tail’ observed after EB staining of the cell nuclei is an indicator of the extent of DNA damage.
MCF-7 cells were seeded in 24-well plastic plates at a density of 5 × 10^4 cells per well and treated with compound E10 for 24 h. The alkaline DNA comet assay was performed according to the instructions of the OxiSelectTM Comet Assay Kit (Cell Biolabs, San Diego, CA, USA, Cat. # STA-350) and analyzed using a Zeiss fluorescent microscope (Jena, Germany). The free software Casplab-1.2.3b2 (CAS PLab, Wroclaw, Poland) was used to calculate the percentage of tail DNA and Olive Tail Moment (OTM) as markers of DNA damage (Olive Tail Moment = Tail DNA (%) × Tail Moment Length).

[6] = tested on: MCF-7 multicellular tumor spheroids; experiment: 3D spheroid tumor model (calcein AM/PI); format: cell-based, human; conditions: E10 1, 5 and 10 μM, 4 days
From the text: Three-dimensional (3D) cell culture provides an environment that allows cells to grow and interact with their surroundings in all spatial dimensions, closely mimicking the physiological conditions found in vivo [44]. […] To evaluate the long-term antitumor effects of E10 in a more physiologically relevant model, a 3D spheroid tumor model was established using MCF-7 breast cancer cells. Each spheroid was formed by approximately 2000 MCF-7 cells and cultured for 3 days to allow spheroid maturation. These spheroids were subsequently treated with varying concentrations of E10 (1, 5, and 10 μM) at 48-h intervals over a period of 4 days. For visualization, the multicellular tumor spheroids (MCTSs) were stained with calcein AM and propidium iodide (PI) in culture medium for 1.5 h. The live/dead cell distribution within the spheroids was then visualized using laser scanning confocal microscopy. […] This limited cell death is likely attributable to hypoxic and nutrient-deprived conditions resulting from excessive cell proliferation.
[…] MCF-7 cells were seeded into cell-repellent 96-well U-bottom plates (Sbio, Tokyo, Japan) at a density of 3000 cells per well and cultured for 72 h to promote spheroid formation. […] After treatment, spheroids were stained with 5 μM PI and 10 μM Calcein-AM, and observed under a fluorescence microscope (Olympus, Tokyo, Japan).

[7] = Figure 6A, E10 or E10 + 3MA, 24 h

**Q.** How did the IC50 [1] turn out when `CC1(C)C2=CC(=O)N(C(=O)C=Cc3cccc(C(F)(F)F)c3)CC(C)(C)C23CCC1C3` (stereo not shown) [E10, 5,5,9,9-Tetramethyl-3-(3-(3-(trifluoromethyl)phenyl)acryloyl)-4,5,6,7,8,9-hexahydro-5a,8-methanobenzo[d]azepin-2(3H)-one] was run?
**A.** 1360 ± 180 nM

**Q.** And the IC50 [2]?
**A.** 1390 ± 320 nM

**Q.** What about the apoptosis rate ([3]; E10 0.5 µM, 24 h) of the same molecule?
**A.** 7.78%

**Q.** What about the apoptosis rate ([3]; E10 1.0 µM, 24 h) of the same molecule?
**A.** 19.53%

**Q.** What about the apoptosis rate ([3]; E10 2.0 µM, 24 h) of the same molecule?
**A.** 24.93%

**Q.** What about the Q1 necrotic cells [3, 7] of the same molecule?
**A.** 15.9

**Q.** And the “Q2 late apoptotic cells” value [3, 7]?
**A.** 9.62

**Q.** What about the “Q3 early apoptotic cells” value [3, 7] of the same molecule?
**A.** 0.47

**Q.** And the Q4 viable cells [3, 7]?
**A.** 74.0

**Q.** What about the “cell apoptosis with or without autophagy blocker 3-MA” value ([3]; Figure 6A, in comparison with control) of the same molecule?
**A.** significantly increased

**Q.** What about the “effect on cell cycle” value [4] of the same molecule?
**A.** cell cycle arrest at the G0/G1 phase

**Q.** What about the “DNA damage, comet formation” value [5] of the same molecule?
**A.** induced DNA fragmentation

**Q.** And the “viability and structural integrity of MCF-7 MCTSs” value [6]?
**A.** dose-dependent inhibitory effect
